Target: BoNT/A LC1-429 (Clostridium botulinum, UniProt P0DPI1)
Assay: biochemical
Conditions: BoNT/A Ki (nM)

Chain of BoNT/A LC1-429 (P0DPI1 1-429, added parts left off): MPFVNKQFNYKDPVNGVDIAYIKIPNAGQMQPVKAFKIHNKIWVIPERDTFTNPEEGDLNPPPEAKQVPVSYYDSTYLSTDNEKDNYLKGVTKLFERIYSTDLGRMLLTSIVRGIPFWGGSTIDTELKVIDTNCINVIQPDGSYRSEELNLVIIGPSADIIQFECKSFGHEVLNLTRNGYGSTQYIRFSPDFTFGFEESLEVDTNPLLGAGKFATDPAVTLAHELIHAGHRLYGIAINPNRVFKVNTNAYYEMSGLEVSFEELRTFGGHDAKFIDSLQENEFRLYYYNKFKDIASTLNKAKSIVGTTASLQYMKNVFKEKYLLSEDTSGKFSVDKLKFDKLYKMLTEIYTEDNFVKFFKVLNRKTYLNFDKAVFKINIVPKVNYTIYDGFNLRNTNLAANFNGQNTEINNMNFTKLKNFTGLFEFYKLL

Row | SMILES | Ki [nM]
1 | CO[C@H](CC(=O)NO)[C@H](Cc1ccc(F)cc1)c1ccc(Br)cc1 [Example 1-3, (3R,4R)-4-(4-bromophenyl)-5-(4-fluorophenyl)-N-hydroxy-3-methoxypentanamide] | 9.36
2 | CCO[C@H](CC(=O)NO)[C@H](Cc1ccc(CO)cc1)c1ccc(F)cc1 [Example 1-9, (3R,4R)-3-ethoxy-4-(4-fluorophenyl)-N-hydroxy-5-(4-(hydroxymethyl)phenyl)pentanamide] | 299
3 | CO[C@H](CC(=O)NO)[C@H](Cc1ccc(F)cc1C)c1ccc(Br)cc1 [Example 2-1, (3R,4R)-4-(4-bromophenyl)-5-(4-fluoro-2-methylphenyl)-N-hydroxy-3-methoxypentanamide] | 235
4 | CO[C@H](CC(=O)NO)[C@H](Cc1ccc(F)c(C)c1)c1ccc(Br)cc1 [Example 2-2, (3R,4R)-4-(4-bromophenyl)-5-(4-fluoro-3-methylphenyl)-N-hydroxy-3-methoxypentanamide] | 3.4
5 | CO[C@@H](CC(=O)NO)[C@H](Cc1ccc(F)cc1C)c1ccc(Br)cc1 [Example 2-3, (3S,4R)-4-(4-bromophenyl)-5-(4-fluoro-2-methylphenyl)-N-hydroxy-3-methoxypentanamide] | 4860
6 | CO[C@@H](CC(=O)NO)[C@H](Cc1ccc(F)c(C)c1)c1ccc(Br)cc1 [Example 2-4, (3S,4R)-4-(4-bromophenyl)-5-(4-fluoro-3-methylphenyl)-N-hydroxy-3-methoxypentanamide] | 145
7 | CCO[C@H](CC(=O)NO)[C@H](Cc1ccc(Cl)cc1)c1ccccc1 [Example 3-1, (3R,4R)-5-(4-chlorophenyl)-3-ethoxy-N-hydroxy-4-phenylpentanamide] | 15.5
8 | O=C(CC[C@H](Cc1ccc(Cl)cc1)c1ccccc1)NO [Example 3-2] | 2700
9 | O=C(CC[C@H](Cc1ccc(Cl)cc1)c1ccc(Br)cc1)NO [Example 3-3] | 915
10 | CO[C@H](CC(=O)NO)[C@H](Cc1ccc(Cl)cc1)c1ccc(Cl)cc1 [Example 3-4, (3R,4R)-4,5-bis(4-chlorophenyl)-N-hydroxy-3-methoxypentanamide] | 4.8
11 | CO[C@H](CC(=O)NO)[C@H](Cc1ccc(Cl)cc1)c1ccc(F)cc1 [Example 3-5, (3R,4R)-5-(4-chlorophenyl)-4-(4-fluorophenyl)-N-hydroxy-3-methoxypentanamide] | 5.2
12 | CCO[C@H](CC(=O)NO)[C@H](Cc1ccc(Cl)cc1)c1ccc(Br)cc1 [Example 3-6, (3R,4R)-4-(4-bromophenyl)-5-(4-chlorophenyl)-3-ethoxy-N-hydroxypentanamide] | 2 ± 0.42
13 | CCO[C@@H](CC(=O)NO)[C@H](Cc1ccc(Cl)cc1)c1ccc(Br)cc1 [Example 3-7, (3S,4R)-4-(4-bromophenyl)-5-(4-chlorophenyl)-3-ethoxy-N-hydroxypentanamide] | 73
14 | CO[C@H](CC(=O)NO)[C@H](Cc1ccc(Cl)cc1)c1ccc(Br)cc1 [Example 3-8, (3R,4R)-4-(4-bromophenyl)-5-(4-chlorophenyl)-N-hydroxy-3-methoxypentanamide] | 1.75
15 | C=Cc1ccc([C@@H](Cc2ccc(Cl)cc2)[C@@H](CC(=O)NO)OCC)cc1 [Example 3-9, (3R,4R)-5-(4-chlorophenyl)-3-ethoxy-N-hydroxy-4-(4-vinylphenyl)pentanamide] | 3.2
16 | CCO[C@H](CC(=O)NO)[C@H](Cc1ccc(Cl)cc1)c1ccc(CO)cc1 [Example 3-10, (3R,4R)-5-(4-chlorophenyl)-3-ethoxy-N-hydroxy-4-(4-(hydroxymethyl)phenyl)pentanamide] | 2.7

Row | SMILES | Ki [nM]
17 | CO[C@H](CC(=O)NO)[C@H](Cc1ccc(Cl)cc1)c1ccc(CO)cc1 [Example 3-11, (3R,4R)-5-(4-chlorophenyl)-N-hydroxy-4-(4-(hydroxymethyl)phenyl)-3-methoxypentanamide] | 9.7
18 | CCO[C@H](CC(=O)NO)[C@H](Cc1ccc(Cl)cc1)c1ccc(C2(C)CO2)cc1 (stereo partly drawn) [Example 3-12, (3R,4R)-5-(4-chlorophenyl)-3-ethoxy-N-hydroxy-4-(4-(2-methyloxiran-2-yl)phenyl)pentanamide] | 9.6
19 | CCCCOCc1ccc([C@@H](Cc2ccc(Cl)cc2)[C@@H](CC(=O)NO)OC)cc1 [Example 3-13] | 24.9
20 | CCO[C@H](CC(=O)NO)[C@H](Cc1ccc(Cl)cc1)c1ccc(COCOC)cc1 [Example 3-14] | 21.2
21 | CCO[C@H](CC(=O)NO)[C@H](Cc1ccc(Cl)cc1)c1ccc(COCOCCOC)cc1 [Example 3-15] | 30
22 | CCO[C@H](CC(=O)NO)[C@H](Cc1ccc(Cl)cc1)c1ccc(CN2CCOCC2)cc1 [Example 3-16, (3R,4R)-5-(4-chlorophenyl)-3-ethoxy-N-hydroxy-4-(4-(morpholinomethyl)phenyl) pentanamide] | 10.1 ± 2.4
23 | CCO[C@H](CC(=O)NO)[C@H](Cc1ccc(Cl)cc1)c1ccc(CN2CCN(C(=O)OC(C)(C)C)CC2)cc1 [Example 3-17, tert-butyl 4-(4-((2R,3R)-1-(4-chlorophenyl)-3-ethoxy-5-(hydroxyamino)-5-oxopentan-2-yl)benzyl)piperazine-1-carboxylate] | 8.5
24 | CCO[C@H](CC(=O)NO)[C@H](Cc1ccc(Cl)cc1)c1ccc(CN2CCNCC2)cc1 [Example 3-18, (3R,4R)-5-(4-chlorophenyl)-3-ethoxy-N-hydroxy-4-(4-(piperazin-1-ylmethyl)phenyl)pentanamide] | 13.5 ± 2.8
25 | CCO[C@H](CC(=O)NO)[C@H](Cc1ccc(Cl)cc1)c1ccc(CN2CCCCC2)cc1 [Example 3-19, (3R,4R)-5-(4-chlorophenyl)-3-ethoxy-N-hydroxy-4-(4-(piperidin-1-ylmethyl)phenyl)pentanamide] | 19.5
26 | CO[C@H](CC(=O)NO)[C@H](Cc1ccc(Cl)cc1)c1ccc(CN2CCCCC2)cc1 [Example 3-20, (3R,4R)-5-(4-chlorophenyl)-N-hydroxy-3-methoxy-4-(4-(piperidin-1-ylmethyl)phenyl)pentanamide] | 37
27 | CCO[C@H](CC(=O)NO)[C@H](Cc1ccc(Cl)cc1)c1ccc(N(C)CCO)cc1 [Example 3-21, (3R,4R)-5-(4-chlorophenyl)-3-ethoxy-N-hydroxy-4-(4-((2-hydroxyethyl)(methyl)amino)phenyl)pentanamide] | 8.5
28 | CCO[C@H](CC(=O)NO)[C@H](Cc1ccc(Cl)cc1)c1ccc(N2CCNCC2)cc1 [Example 3-22, (3R,4R)-5-(4-chlorophenyl)-3-ethoxy-N-hydroxy-4-(4-(piperazin-1-yl)phenyl)pentanamide] | 13.5
29 | CCO[C@H](CC(=O)NO)[C@H](Cc1ccc(Cl)cc1)c1ccc(N2CCOCC2)cc1 [Example 3-23, (3R,4R)-5-(4-chlorophenyl)-3-ethoxy-N-hydroxy-4-(4-morpholinophenyl)pentanamide] | 10
30 | CCO[C@H](CC(=O)NO)[C@H](Cc1ccc(Cl)cc1)c1ccc(-c2cccn2C(=O)OC(C)(C)C)cc1 [Example 3-24, tert-butyl 2-(4-((2R,3R)-1-(4-chlorophenyl)-3-ethoxy-5-(hydroxyamino)-5-oxopentan-2-yl)phenyl)-1H-pyrrole-1-carboxylate] | 8.8
31 | CCO[C@H](CC(=O)NO)[C@H](Cc1ccc(Cl)cc1)c1ccc(-c2ccc[nH]2)cc1 [Example 3-25, (3R,4R)-4-(4-(1H-pyrrol-2-yl)phenyl)-5-(4-chlorophenyl)-3-ethoxy-N-hydroxypentanamide] | 8

From patent US9505710B2 (priority 2015, dated 2016)
